From US6608032B1, “Medicinal compositions” (Takara Shuzo Co., Ltd., priority 1999, dated 2003)

How the values were obtained:
α-glucosidase = α-glucosidase inhibition with p-nitrophenyl-α-D-glucopyranoside; type: biochemical, S. cerevisiae
Experimental: (1) An α-glucosidase activity was measured by allowing α-glucosidase to act on p-nitrophenyl-α-D-glucopyranoside (a chromogenic substrate) and calorimetrically quantifying 4-nitrophenol released by hydrolysis.
10 μl of α-glucosidase solution [40 mU/ml, derived from S. cerevisiae, Sigma, dissolved in 10 mM phosphate buffer (pH 7.2 at 37° C.)] and 10 μl of a solution containing a test sample dissolved in 10 mM phosphate buffer (pH 7.2 at 37° C.) were mixed. 80 μl of a 1.5 mg/ml substrate solution [Sigma, dissolved in 10 mM phosphate buffer (pH 7.2 at 37° C.)] was added thereto to initiate the reaction. After reacting at 37° C. for 40 minutes, the absorbance at 410 nm was measured using Shimadzu uv2200. The remaining activity therein was calculated defining the activity observed without the addition of test sample as 100%.
Agarobiose, agarotetraose, agarohexaose and agarooctaose used as test samples were those prepared in Referential Example 1. Commercially available products of anhydrogalactose (Funakoshi), neoagarobiose (Sigma), neoagarotetraose (Funakoshi) and neoagarohexaose (Funakoshi) were used.

[1] = test system: enzymes involved in the synthesis of prostaglandin E2 from arachidonic acid; experiment: Prostaglandin E2 generation from arachidonic acid, sample added directly to crude enzyme fraction; type: biochemical; conditions: 1 μL of 100 mM agarobiose, 100 mM agarohexaose, 10 mM DGE or 13 mM nimesulide added to 100 μL crude enzyme fraction; FIG. 15
Experimental: 2.5 μL of 200 mM aqueous solution of glutathione, 2.5 μL of a suspension containing L-adrenaline at a concentration of 200 mM in water, and 1 μL of 100 mM aqueous solution of agarobiose, 100 mM aqueous solution of agarohexaose or 10 mM aqueous solution of DGE as a sample were added to 100 μL of the control sample from the crude enzyme fraction prepared in Example 15. 1 μL of water was added as a negative control. 1 μL of 13 mM nimesulide (Cayman, 70640) solution was added as a positive control. 1 μL of 3 mM arachidonic acid solution was then added to start the reaction. The mixture was reacted at 37° C. for 5 minutes. The reaction was stopped by heating at 100° C. for 2 minutes. The content of prostaglandin E2 in the reaction mixture was measured using Prostaglandin E2 ELISA Kit.

RAW264.7 cells = experiment: Prostaglandin E2 generation by crude enzyme fraction of RAW264.7 cells pre-treated with sample and LPS; type: cell-based; conditions: cells treated with 200 μl of 10 mM sample per 20 ml, 5 hours before LPS
Experimental: (1) RAW264.7 cells (ATCC TIB 71) were suspended in Dulbecco's modified Eagle's medium (Bio Whittaker, 12-604F) containing 10% fetal calf serum (Gibco) at a concentration of 1×10^6 cells/ml. 20 ml of the suspension was added to a 10-cm Petri dish and the dish was incubated at 37° C. overnight in the presence of 5% CO2. 200 μl of a solution containing agarohexaose or DGE (obtained in Example 15-(2) below) at a concentration of 10 mM in water was added to the dish. The dish was incubated for 5 hours. 200 μl of a solution containing lipopolysaccharide (LPS, Sigma, L-2012) at a concentration of 100 μg/ml in water was added thereto. The dish was incubated for additional 12 hours. As a control, 200 μL of water was added in place of the sample. The cells were recovered by detaching the cells from the plate using a scraper and suspended in 0.1 M tris buffer (pH 8.0) containing 1 μg/ml pepstatin A (Sigma, P5318), 1 μg/ml leupeptin (Sigma, L2884) and 1 mM phenylmethylsulfonyl fluoride (Nacalai Tesque, 273-27). The cell membrane was destroyed by sonication. A supernatant collected by centrifugation was used as a crude enzyme fraction. The content of protein in the crude enzyme fraction was determined using Micro BCA Protein Assay Reagent (a product of Pierce sold by Takara Shuzo, P7411). 2.5 μL of 200 mM aqueous solution of glutathione (Nacalai Tesque, 170-50), 2.5 μL of a suspension containing L-adrenaline (Nacalai Tesque, 010-04) at a concentration of 200 mM in water, and 1 μL of 3 mM solution of arachidonic acid (Cayman, 90010.1) or 1 μL of 100 μg/mL solution of prostaglandin H2 (Cayman, 17020) were added to 100 μL of the sample from the crude enzyme fraction prepared as described above. The mixture was reacted at 37° C. for 30 minutes. The reaction was stopped by heating at 100° C. for 2 minutes. The content of prostaglandin E2 in the reaction mixture was measured using Prostaglandin E2 ELISA Kit (Neogen, 404110).

heme oxygenase 1 protein = experiment: Heme oxygenase 1 induction in RAW264.7 cells (Western blot); type: cell-based; set-up: key: − represents no band observed; increase in the intensity of the band is represented as follows:+−<+<++; increase in the intensity of the band is represented as follows:+−<+<++; increase in the intensity of the band is represented as follows:+−<+<++; conditions: positive control, 5 μl of 3 mM solution in dimethyl sulfoxide per 5 ml well; 15 hours
Experimental: RAW264.7 cells (ATCC TIB 71) were suspended in Dulbecco's modified Eagle's medium (Bio Whittaker, 12-604F) containing 10% fetal calf serum (Gibco) at a concentration of 3×10^5 cells/ml. 5 ml of the suspension was added to each well of a 6-well microtiter plate and the plate was incubated at 37° C. overnight in the presence of 5% CO2. 50 μl of a solution containing agarobiose or agarohexaose in Referential Example 1 at a concentration of 20 mM, 10 mM or 5 mM in water was added to the well. The plate was incubated for 15 hours. A positive control for heme oxygenase 1 induction in which 5 μl of 3 mM solution of 15-deoxy-Δ12,14 prostaglandin J2 (Cayman Chemical, 18570) in dimethyl sulfoxide was added, and a negative control in which water was added were provided. The cells were recovered by detaching the cells from the plate using a scraper and suspended in 0.1 M tris-HCl buffer (pH 7.5) containing 0.05 mM pepstatin A (Sigma, P5318), 0.2 mM leupeptin (Sigma, L2884), 1 mM phenylmethylsulfonyl fluoride (Nacalai Tesque, 273-27), 10 mm ethylenediaminetetraacetic acid disodium salt and 0.1% Triton X-100. A supernatant obtained by centrifuging the suspension after freezing and thawing was used as a protein fraction. The content of protein in the protein fraction was determined using Micro BCA Protein Assay Reagent (a product of Pierce sold by Takara Shuzo, P7411). A sample from the protein fraction prepared as described above was mixed with an equal volume of 0.125 M tris-hydrochloride buffer (pH 6.8) containing 4% sodium lauryl sulfate (SDS), 2% 2-mercaptoethanol, 0.001% Bromophenol Blue and 20% glycerol. After treatment at 100° C. for 5 minutes, a portion corresponding to 10 μg of protein was loaded on 12.5% SDS-polyacrylamide gel and electrophoresed at a constant current of 20 mA. After electrophoresis, the gel was transferred to a PVDF membrane (Millipore, IPVH000 10) at a constant voltage of 15 V for 25 minutes using a blotting buffer (containing 48 mM tris, 39 mM glycine, 20% methanol and 0.0375% SDS) and Trans-Blot SD Cell Semi-Dry blotting apparatus (Bio-Rad) according to the attached protocol. After transferring, the PVDF membrane was blocked in a solution of Block Ace (Dainippon Pharmaceutical, UK-B25) at 4° C. overnight. After blocking, the membrane washed three times in phosphate buffered saline containing 0.1% Tween 20 for 15 minutes with gentle shaking. The membrane was reacted in phosphate buffered saline containing 10% Block Ace, 0.1% Tween 20 and 200 ng/ml of anti-heme oxygenase 1 antibody (N-19; Santa Cruz, sc-7696) at room temperature for 1 hour with gentle shaking, and then washed three times in phosphate buffered saline containing 0.1% Tween 20 for 15 minutes with gentle shaking. The membrane was reacted in phosphate buffered saline containing 10% Block Ace, 0.1% Tween 20 and 0.1% peroxidase-labeled rabbit anti-goat IgG (H+L) antibody (Zymed, 61-1620) at room temperature for 1 hour with gentle shaking, and then washed five times in phosphate buffered saline containing 0.1% Tween 20 for 15 minutes with gentle shaking. The PVDF membrane was stained using Western Blot Chemiluminescence Reagent Plus (a product of NEN Life Science Products sold by Daiichi Pure Chemicals, NEL103) according to the attached protocol and exposed to an X-ray film (Kodak, CAT165 1454). After exposure, the film was developed using FPM800 (Fuji Film).
The intensity of the band depended on the concentration of agarobiose or agarohexaose. In the table, the intensity of the band for heme oxygenase 1 protein is expressed by the mark+. Specifically, − represents no band observed, and increase in the intensity of the band is represented as follows:+−<+<++.

Compound	Activity of inhibiting α-glucosidase (% remaining activity) (α-glucosidase; 5 μM) [%]	Activity of inhibiting α-glucosidase (% remaining activity) (α-glucosidase; 50 μM) [%]	Activity of inhibiting α-glucosidase (% remaining activity) (α-glucosidase; 500 μM) [%]	Activity of inhibiting α-glucosidase (% remaining activity) (α-glucosidase; 1000 μM) [%]	Activity of inhibiting α-glucosidase (% remaining activity) (α-glucosidase; 5000 μM) [%]	production of prostaglandin E2 from arachidonic acid [1]	production of prostaglandin E2, arachidonic acid added (RAW264.7 cells; FIG. 13)	production of prostaglandin E2, prostaglandin H2 added (RAW264.7 cells; FIG. 14)	Intensity of band for heme oxygenase 1 protein (heme oxygenase 1 protein)
OC[C@H]1O[C@@H](O)[C@H](O)[C@@H](O[C@@H]2O[C@H]3CO[C@@H]([C@@H]2O)[C@@H]3O[C@@H]2O[C@H](CO)[C@H](O)[C@H](O[C@@H]3O[C@H]4CO[C@@H]([C@@H]3O)[C@@H]4O[C@@H]3O[C@H](CO)[C@H](O)[C@H](O[C@@H]4O[C@H]5CO[C@@H]([C@@H]4O)[C@@H]5O)[C@H]3O)[C@H]2O)[C@H]1O [Neoagarohexaose, neoagarohexaose, reference compound]	100	100	93	71	8				
CS(=O)(=O)Nc1ccc([N+](=O)[O-])cc1Oc1ccccc1 [nimesulide, reference compound]						suppressed			
OC[C@H]1OC(O)[C@H](O)[C@@H](O[C@@H]2O[C@H]3CO[C@@H]([C@@H]2O)[C@@H]3O)[C@H]1O (stereo partly drawn) [Neoagarobiose, neoagarobiose, reference compound]	100	100	100	100	100				
OC1O[C@@H]2CO[C@@H]([C@H]2O)[C@H]1O (stereo partly drawn) [Anhydrogalactose, 3,6-anhydrogalactopyranose]	100	100	100	100	100				
agarooctaose	91	90	32	26	11				
OC[C@H]1O[C@@H](O)[C@H](O)[C@@H](O[C@@H]2O[C@H]3CO[C@@H]([C@@H]2O)[C@@H]3O[C@@H]2O[C@H](CO)[C@H](O)[C@H](O[C@@H]3O[C@H]4CO[C@@H]([C@@H]3O)[C@@H]4O)[C@H]2O)[C@H]1O [Neoagarotetraose, neoagarotetraose, reference compound]	100	93	89	76	42				
O=C1C=CC(CO)OC1O [DGE, L-glycero-1,5-epoxy-1αβ, 6-dihydroxy-cis-hex-3-en-2-one]						not suppressed	suppressed as compared with the control	suppressed as compared with the control	
CCCCC/C=C/C=C1/C(=O)C=C[C@@H]1C/C=C\CCCC(=O)O [15-deoxy-Δ12,14 prostaglandin J2, reference compound]									+
